From BindingDB's records for doi:10.1016/s0960-894x(01)00378-x (The R. W. Johnson Pharmaceutical Research Institute, 2001)

Legend:
[1] = In vitro inhibition of human platelet aggregation induced by SFLLRN-NH2 (at a concentration of 2 uM)
[2] = In vitro inhibition of human platelet aggregation induced by alpha-thrombin (at a concentration of 0.15 nM)
[3] = as above; remark: listed apart in the source

IC50 [1]	IC50 [2]	IC50 [3]	Structure (SMILES)
270 nM	2320 nM	–	COc1ccc(C[C@H](NC(=O)Nc2ccc3c(CN4CCCC4)cn(Cc4ccc(F)cc4)c3c2)C(=O)N[C@@H](CCCNC(=N)N)C(=O)NCc2ccccc2)cc1 [2-[2-{3-[1-(4-Fluoro-benzyl)-3-pyrrolidin-1-ylmethyl-1H-indol-6-yl]-ureido}-3-(4-methoxy-phenyl)-propionylamino]-5-guanidino-pentanoic acid benzylamide]
–	–	38700 nM	COC(=O)c1ccc(Cn2cc(CN3CCCC3)c3ccc(NC(=O)N[C@@H](Cc4ccc(OC)cc4)C(=O)N[C@@H](CCCNC(=N)N)C(=O)NCC4CCCCC4)cc32)cc1 [4-(6-{3-[(S)-1-[(S)-1-(Cyclohexylmethyl-carbamoyl)-4-guanidino-butylcarbamoyl]-2-(4-methoxy-phenyl)-ethyl]-ureido}-3-pyrrolidin-1-ylmethyl-indol-1-ylmethyl)-benzoic acid methyl ester]
1000 nM	–	–	COc1ccc(C[C@H](NC(=O)Nc2ccc3c(CN4CCCCC4)cn(Cc4ccc(F)cc4)c3c2)C(=O)N[C@@H](CCCNC(=N)N)C(=O)NCC2CCCCC2)cc1 [(S)-2-[(S)-2-{3-[1-(4-Fluoro-benzyl)-3-piperidin-1-ylmethyl-1H-indol-6-yl]-ureido}-3-(4-methoxy-phenyl)-propionylamino]-5-guanidino-pentanoic acid cyclohexylmethyl-amide]
600 nM	8500 nM	–	COc1ccc(C[C@H](NC(=O)Nc2ccc3c(CN4CCCC4)cn(Cc4ccc(F)cc4)c3c2)C(=O)N[C@@H](CCCNC(=N)N)C(=O)NCCCc2ccccc2)cc1 [(S)-2-[(S)-2-{3-[1-(4-Fluoro-benzyl)-3-pyrrolidin-1-ylmethyl-1H-indol-6-yl]-ureido}-3-(4-methoxy-phenyl)-propionylamino]-5-guanidino-pentanoic acid (3-phenyl-propyl)-amide]
–	4400 nM	–	COc1ccc(C[C@H](NC(=O)Nc2ccc3c(CN4CCCC4)cn(Cc4ccc(F)cc4)c3c2)C(=O)N[C@@H](CCCNC(=N)N)C(=O)NCC2CCCCC2)cc1 [(S)-2-[(S)-2-{3-[1-(4-Fluoro-benzyl)-3-pyrrolidin-1-ylmethyl-1H-indol-6-yl]-ureido}-3-(4-methoxy-phenyl)-propionylamino]-5-guanidino-pentanoic acid cyclohexylmethyl-amide]
900 nM	11100 nM	–	CCN(CC)Cc1cn(Cc2ccc(F)cc2)c2cc(NC(=O)N[C@@H](Cc3ccc(OC)cc3)C(=O)N[C@@H](CCCNC(=N)N)C(=O)NCC3CCCCC3)ccc12 [(S)-2-[(S)-2-{3-[3-Diethylaminomethyl-1-(4-fluoro-benzyl)-1H-indol-6-yl]-ureido}-3-(4-methoxy-phenyl)-propionylamino]-5-guanidino-pentanoic acid cyclohexylmethyl-amide]
900 nM	11700 nM	–	COc1ccc(C[C@H](NC(=O)Nc2ccc3c(CN4CCCCC4)cn(Cc4cccc(C)c4)c3c2)C(=O)N[C@@H](CCCNC(=N)N)C(=O)NCC2CCCCC2)cc1 [(S)-5-Guanidino-2-((S)-3-(4-methoxy-phenyl)-2-{3-[1-(3-methyl-benzyl)-3-piperidin-1-ylmethyl-1H-indol-6-yl]-ureido}-propionylamino)-pentanoic acid cyclohexylmethyl-amide]
–	36500 nM	–	COc1ccc(C[C@H](NC(=O)Nc2ccc3c(CN4CCCCC4)cn(Cc4ccc(OC(F)(F)F)cc4)c3c2)C(=O)N[C@@H](CCCNC(=N)N)C(=O)NCC2CCCCC2)cc1 [(S)-5-Guanidino-2-((S)-3-(4-methoxy-phenyl)-2-{3-[3-piperidin-1-ylmethyl-1-(4-trifluoromethoxy-benzyl)-1H-indol-6-yl]-ureido}-propionylamino)-pentanoic acid cyclohexylmethyl-amide]
4800 nM	–	–	COc1ccc(C[C@H](NC(=O)Nc2ccc3c(CN4CCCC4)cn(Cc4ccc(OC(F)(F)F)cc4)c3c2)C(=O)N[C@@H](CCCNC(=N)N)C(=O)NCC2CCCCC2)cc1 [(S)-5-Guanidino-2-((S)-3-(4-methoxy-phenyl)-2-{3-[3-pyrrolidin-1-ylmethyl-1-(4-trifluoromethoxy-benzyl)-1H-indol-6-yl]-ureido}-propionylamino)-pentanoic acid cyclohexylmethyl-amide]

The remaining lines, values behind:

Structure (SMILES)	IC50 [1]	IC50 [2]	IC50 [3]
NC(=O)NCCCC(NC(=O)[C@H](Cc1ccc(F)c(F)c1)NC(=O)Nc1ccc2c(CN3CCCC3)cn(Cc3c(Cl)cccc3Cl)c2c1)C(=O)NCc1ccccc1 (stereo partly drawn) [2-[(S)-2-{3-[1-(2,6-Dichloro-benzyl)-3-pyrrolidin-1-ylmethyl-1H-indol-6-yl]-ureido}-3-(3,4-difluoro-phenyl)-propionylamino]-5-ureido-pentanoic acid benzylamide]	300 nM	–	–
NC(=O)CCC(NC(=O)[C@H](Cc1ccc(F)c(F)c1)NC(=O)Nc1ccc2c(CN3CCCC3)cn(Cc3c(Cl)cccc3Cl)c2c1)C(=O)NCc1ccccc1 (stereo partly drawn) [2-[(S)-2-{3-[1-(2,6-Dichloro-benzyl)-3-pyrrolidin-1-ylmethyl-1H-indol-6-yl]-ureido}-3-(3,4-difluoro-phenyl)-propionylamino]-pentanedioic acid 5-amide 1-benzylamide]	2000 nM	–	–
NCCC(NC(=O)[C@H](Cc1ccc(F)c(F)c1)NC(=O)Nc1ccc2c(CN3CCCC3)cn(Cc3c(Cl)cccc3Cl)c2c1)C(=O)NCc1ccccc1 (stereo partly drawn) [4-Amino-N-benzyl-2-[(S)-2-{3-[1-(2,6-dichloro-benzyl)-3-pyrrolidin-1-ylmethyl-1H-indol-6-yl]-ureido}-3-(3,4-difluoro-phenyl)-propionylamino]-butyramide]	160 nM	340 nM	–
N#Cc1ccc(C[C@H](NC(=O)Nc2ccc3c(CN4CCCC4)cn(Cc4c(Cl)cccc4Cl)c3c2)C(=O)N[C@@H](CCCNC(=N)N)C(=O)NCc2ccccc2)cc1 [(S)-2-((S)-3-(4-Cyano-phenyl)-2-{3-[1-(2,6-dichloro-benzyl)-3-pyrrolidin-1-ylmethyl-1H-indol-6-yl]-ureido}-propionylamino)-5-guanidino-pentanoic acid benzylamide]	70 nM	–	–
Cc1ccccc1Cn1cc(CN2CCCC2)c2ccc(NC(=O)N[C@@H](Cc3ccc(C#N)cc3)C(=O)N[C@@H](CCCNC(=N)N)C(=O)NCc3ccccc3)cc21 [(S)-2-((S)-3-(4-Cyano-phenyl)-2-{3-[1-(2-methyl-benzyl)-3-pyrrolidin-1-ylmethyl-1H-indol-6-yl]-ureido}-propionylamino)-5-guanidino-pentanoic acid benzylamide]	600 nM	620 nM	–
COc1ccc(C[C@H](NC(=O)Nc2ccc3c(CN4CCCC4)cn(Cc4ccccc4Cl)c3c2)C(=O)N[C@@H](CCCNC(=N)N)C(=O)NCCCc2ccccc2)cc1 [(S)-2-[(S)-2-{3-[1-(2-Chloro-benzyl)-3-pyrrolidin-1-ylmethyl-1H-indol-6-yl]-ureido}-3-(4-methoxy-phenyl)-propionylamino]-5-guanidino-pentanoic acid (3-phenyl-propyl)-amide]	140 nM	2600 nM	–
COc1ccc(C[C@H](NC(=O)Nc2ccc3c(CN4CCC4)cn(Cc4ccc(F)cc4)c3c2)C(=O)N[C@@H](CCCNC(=N)N)C(=O)NCc2ccccc2)cc1 [(S)-2-[(S)-2-{3-[3-Azetidin-1-ylmethyl-1-(4-fluoro-benzyl)-1H-indol-6-yl]-ureido}-3-(4-methoxy-phenyl)-propionylamino]-5-guanidino-pentanoic acid benzylamide]	400 nM	–	–
CCN(CC)Cc1cn(Cc2cccc(C)c2)c2cc(NC(=O)N[C@@H](Cc3ccc(OC)cc3)C(=O)N[C@@H](CCCNC(=N)N)C(=O)NCCCc3ccccc3)ccc12 [(S)-2-[(S)-2-{3-[3-Diethylaminomethyl-1-(3-methyl-benzyl)-1H-indol-6-yl]-ureido}-3-(4-methoxy-phenyl)-propionylamino]-5-guanidino-pentanoic acid (3-phenyl-propyl)-amide]	210 nM	1300 nM	–
NCCC[C@H](NC(=O)[C@H](Cc1ccc(F)c(F)c1)NC(=O)Nc1ccc2c(CN3CCCC3)cn(Cc3c(Cl)cccc3Cl)c2c1)C(=O)NCc1ccccc1 [(S)-5-Amino-2-[(S)-2-{3-[1-(2,6-dichloro-benzyl)-3-pyrrolidin-1-ylmethyl-1H-indol-6-yl]-ureido}-3-(3,4-difluoro-phenyl)-propionylamino]-pentanoic acid benzylamide]	100 nM	–	–
COc1ccc(C[C@H](NC(=O)Nc2ccc3c(CN4CCCCC4)cn(Cc4ccccc4C)c3c2)C(=O)N[C@@H](CCCNC(=N)N)C(=O)NCCCc2ccccc2)cc1 [(S)-5-Guanidino-2-((S)-3-(4-methoxy-phenyl)-2-{3-[1-(2-methyl-benzyl)-3-piperidin-1-ylmethyl-1H-indol-6-yl]-ureido}-propionylamino)-pentanoic acid (3-phenyl-propyl)-amide]	310 nM	4800 nM	–
COc1ccc(C[C@H](NC(=O)Nc2ccc3c(CN4CCCC4)cn(Cc4ccccc4C)c3c2)C(=O)N[C@@H](CCCNC(=N)N)C(=O)NCCCc2ccccc2)cc1 [(S)-5-Guanidino-2-((S)-3-(4-methoxy-phenyl)-2-{3-[1-(2-methyl-benzyl)-3-pyrrolidin-1-ylmethyl-1H-indol-6-yl]-ureido}-propionylamino)-pentanoic acid (3-phenyl-propyl)-amide]	200 nM	–	–
NCC(NC(=O)[C@H](Cc1ccc(F)c(F)c1)NC(=O)Nc1ccc2c(CN3CCCC3)cn(Cc3c(Cl)cccc3Cl)c2c1)C(=O)NCc1ccccc1 (stereo partly drawn) [(S)-N-(2-Amino-1-benzylcarbamoyl-ethyl)-2-{3-[1-(2,6-dichloro-benzyl)-3-pyrrolidin-1-ylmethyl-1H-indol-6-yl]-ureido}-3-(3,4-difluoro-phenyl)-propionamide]	500 nM	–	–
CSCCC(NC(=O)[C@H](Cc1ccc(F)c(F)c1)NC(=O)Nc1ccc2c(CN3CCCC3)cn(Cc3c(Cl)cccc3Cl)c2c1)C(=O)NCc1ccccc1 (stereo partly drawn) [N-Benzyl-2-[(S)-2-{3-[1-(2,6-dichloro-benzyl)-3-pyrrolidin-1-ylmethyl-1H-indol-6-yl]-ureido}-3-(3,4-difluoro-phenyl)-propionylamino]-4-methylsulfanyl-butyramide]	400 nM	–	–
